# “Also recorded” adds a separate entry of the source.
# Experiments:
# Src = Src (Homo sapiens, UniProt P12931); details: sources as Table 1 footnote; cited from earlier work
# [1] = test system: human pterygium epithelial cells (hPECs); experiment: Human pterygium mouse model, corneal pterygium lesion size; details: vs day 7 baseline; 0.2% nintedanib, 0.05% sunitinib, 0.002% mitomycin or combination
# [2] = test system: corneal neovascularization (NV); experiment: Human pterygium mouse model, corneal neovascularization score; assay type: in vivo, athymic nude mice; details: vs day 7 baseline, score 0 through 3, 0.2% nintedanib, 0.05% sunitinib, 0.002% mitomycin or combination
# [3] = test system: suture-induced neovascularization in the rabbit cornea; experiment: Rabbit cornea suture model of neovascularization; assay type: in vivo
# Procedure: The rabbit cornea suture model was established to assess drug effects on cornea neovascularization (Ko et al. Cornea. 2013; 32(5): 689-695; Perez-Santonj a et al. Am J Ophthalmol. 2010; 150(4):519-528). […] Thirty six female Zealand White rabbits were used to perform the study. […] The animals were treated in both eyes as described in Table 4. [table] During the study, the animals were closely observed for various ocular indications as well as general physical conditions including body weight. […] NIH ImageJ® software was used to analyze the ocular images. Each image was opened in ImageJ®, the scale was calibrated using the ruler in the photograph and the neovascularized area on the cornea near the suture was selected by the selection tool. […] The results were plotted as histograms of average with standard deviation for easy comparison.
# [4] = rabbit, in vivo
# [5] = rabbits with corneal sutures dosed with sunitinib for 7 days (Perez-Santonja 2010); cited from earlier work
# [6] = 0.05% BID topical, Day 10 (after 2 days of treatment)
# [7] = 0.05% BID topical, Day 12 (after 4 days of treatment)
# [8] = 0.05% BID topical, Day 14 (after 6 days of treatment)
# [9] = 0.05% TID topical, Day 10 (after 2 days of treatment)
# [10] = 0.05% TID topical, Day 12 (after 4 days of treatment)
# [11] = 0.05% TID topical, Day 14 (after 6 days of treatment)
# [12] = 0.2% BID topical, Day 10 (after 2 days of treatment)
# [13] = 0.2% BID topical, Day 12 (after 4 days of treatment)
# [14] = 0.2% BID topical, Day 14 (after 6 days of treatment)
# [15] = 0.2% TID topical, Day 10 (after 2 days of treatment)
# [16] = 0.2% TID topical, Day 12 (after 4 days of treatment)
# [17] = 0.2% TID topical, Day 14 (after 6 days of treatment)
# Sequence of Src (P12931 whole entry, species assumed): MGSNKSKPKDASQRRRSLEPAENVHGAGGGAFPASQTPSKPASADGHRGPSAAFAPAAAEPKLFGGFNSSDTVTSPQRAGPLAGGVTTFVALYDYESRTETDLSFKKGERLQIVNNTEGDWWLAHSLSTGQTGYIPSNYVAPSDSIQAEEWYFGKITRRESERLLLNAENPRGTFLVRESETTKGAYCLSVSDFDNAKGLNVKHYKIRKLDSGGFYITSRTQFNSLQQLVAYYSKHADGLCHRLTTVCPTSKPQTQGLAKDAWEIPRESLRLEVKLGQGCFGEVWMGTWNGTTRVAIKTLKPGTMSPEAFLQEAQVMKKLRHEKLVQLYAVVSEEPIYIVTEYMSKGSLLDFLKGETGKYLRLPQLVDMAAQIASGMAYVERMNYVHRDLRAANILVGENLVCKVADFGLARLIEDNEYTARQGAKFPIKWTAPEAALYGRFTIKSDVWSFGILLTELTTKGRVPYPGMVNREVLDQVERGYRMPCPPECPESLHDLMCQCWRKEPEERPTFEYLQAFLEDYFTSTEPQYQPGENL
smiles,measurement,setting,value
COc1cc2c(Oc3ccc4[nH]c(C)cc4c3F)ncnc2cc1OCCCN1CCCC1 [Cediranib],IC50,Src,130 nM
CO[C@@]12[C@H](COC(N)=O)C3=C(C(=O)C(C)=C(N)C3=O)N1C[C@@H]1N[C@@H]12 [MMC],Effect on pterygium lesion area on mouse cornea (in words),[1],showed a trend of reduction in pterygium areas but didn't reach statistical significance at any of the time points; also recorded: showed a trend of reduction of pterygium lesion area but the differences at each time points from the day 7 baseline are not statistically significant
same,Effect on corneal neovascularization score (in words),[2]; listed as Mitomycin,"reduced neovascularization score, with significant reductions on day 17"
same,Effect on corneal neovascularization score (in words),[2]; listed as mitomycin,reduced the neovascularization on cornea and the reduction was significant comparing levels on day 17 vs the baseline on day 7
"COC(=O)c1ccc2c(c1)NC(=O)/C2=C(\Nc1ccc(N(C)C(=O)CN2CCN(C)CC2)cc1)c1ccccc1 [Nintedanib, Methyl (3Z)-3-{[(4-{methyl[(4-methylpiperazin-1-yl)acetyl]amino}phenyl)amino] (phenyl)methylidene}-2-oxo-2,3-dihydro-1H-indole-6-carboxylate]",Effect on pterygium lesion area on mouse cornea (in words),[1],led to a reduction of the pterygium area on day 14 and day 17 in comparison to the baseline level on day 7; also recorded: reduced pterygium lesion area on mouse cornea
same,Neovascular Area,[3]; [6],5.97 mm^2
same,Neovascular Area Mean Percent Change over Day 7 Baseline (− sign indicates decrease),[3]; [6],64.08%
same,Neovascular Area,[3]; [7],5.03 mm^2
same,Neovascular Area Mean Percent Change over Day 7 Baseline (− sign indicates decrease),[3]; [7],45.56%
same,Neovascular Area,[3]; [8],7.20 mm^2
same,Neovascular Area Mean Percent Change over Day 7 Baseline (− sign indicates decrease),[3]; [8],99.48%
same,Neovascular Area,[3]; [9],3.23 mm^2
same,Neovascular Area Mean Percent Change over Day 7 Baseline (− sign indicates decrease),[3]; [9],1.99%
same,Neovascular Area,[3]; [10],2.14 mm^2
same,Neovascular Area Mean Percent Change over Day 7 Baseline (− sign indicates decrease),[3]; [10],−27.87%
same,Neovascular Area,[3]; [11],4.01 mm^2
same,Neovascular Area Mean Percent Change over Day 7 Baseline (− sign indicates decrease),[3]; [11],32.66%
same,Neovascular Area,[3]; [12],3.32 mm^2
same,Neovascular Area Mean Percent Change over Day 7 Baseline (− sign indicates decrease),[3]; [12],12.09%
same,Neovascular Area,[3]; [13],4.15 mm^2
same,Neovascular Area Mean Percent Change over Day 7 Baseline (− sign indicates decrease),[3]; [13],37.15%
same,Neovascular Area,[3]; [14],5.44 mm^2
same,Neovascular Area Mean Percent Change over Day 7 Baseline (− sign indicates decrease),[3]; [14],73.51%
same,Neovascular Area,[3]; [15],2.48 mm^2
same,Neovascular Area Mean Percent Change over Day 7 Baseline (− sign indicates decrease),[3]; [15],−16.84%
same,Neovascular Area,[3]; [16],2.56 mm^2
same,Neovascular Area Mean Percent Change over Day 7 Baseline (− sign indicates decrease),[3]; [16],−13.80%
same,Neovascular Area,[3]; [17],2.88 mm^2
same,Neovascular Area Mean Percent Change over Day 7 Baseline (− sign indicates decrease),[3]; [17],−1.51%
same,Effect on suture-induced neovascularization in the rabbit cornea (in words),"[3]; 0.2% or 0.05% topical, BID or TID, days 8 to 15",marked inhibitory effect on suture-induced neovascularization in the rabbit cornea
same,Effect on corneal neovascularization score (in words),[2],reduced neovascularization score on the cornea during the treatments with the level on day 17 showing a significant difference from the baseline on day 7
same,Effect on corneal neovascularization score (in words),[2]; listed as nintedanib,reduced the neovascularization on cornea and the reduction was significant comparing levels on day 17 vs the baseline on day 7
same,Potential toxicity: abnormal lens with incomplete lenticular opacity,[4],none was observed
CCN(CC)CCNC(=O)c1c(C)[nH]c(/C=C2\C(=O)Nc3ccc(F)cc32)c1C [Sunitinib],Neovascular Area,[3]; [9],3.58 mm^2
same,Neovascular Area Mean Percent Change over Day 7 Baseline (− sign indicates decrease),[3]; [9],10.80%
same,Neovascular Area,[3]; [10],4.62 mm^2
same,Neovascular Area Mean Percent Change over Day 7 Baseline (− sign indicates decrease),[3]; [10],49.72%
same,Neovascular Area,[3]; [11],5.96 mm^2
same,Neovascular Area Mean Percent Change over Day 7 Baseline (− sign indicates decrease),[3]; [11],98.38%
same,Anterior chamber cellular reaction,[5],an anterior chamber cellular reaction was observed on day 1
same,Iris surface staining (drug deposits),[5],"Iris surface yellowish staining, which represents sunitinib deposits on the iris surface was observed during the whole dosing period"
same,Potential toxicity: abnormal lens with incomplete lenticular opacity,[4],abnormal lens with incomplete lenticular opacity was observed in one rabbit
